According to patent US5703079A, “Tetrahydrofuran antifungals” (Schering Corporation, priority 1995, dated 1997):

Columns and labels:
[1] = serum levels, half lives and tissue distribution following oral dosing; format: in vivo; conditions: methyl cellulose formulation, mice, rats, dogs and monkeys
Aspergillus = experiment: in vitro antifungal broth dilution, Aspergillus (37 strains); format: cell-based, Aspergillus (flavus, fumigatus and other species); conditions: for percentages of strains with MICs ≤1 mcg/ml / percentages of strains with MFCs ≤1 mcg/ml: Aspergillus, 37 strains; for percentages of strains with MICs ≤1 mcg/ml: Table Q; for percentages of strains with MFCs ≤1 mcg/ml: Table R
Procedure: (§1) The in vitro antifungal activity tests were performed via conventional broth dilution methods in Sabouraud dextrose broth ("SDB") medium and Eagles Minimum Essential Medium ("EMEM") against a large number of fungi. Minimum Inhibitory Concentrations ("MICs") were measured after 24, 48 and 72 hour tests. In many cases, Minimum Fungicidial Concentrations ("MFCS") were measured after 48 and 72 hours.

Candida albicans = experiment: in vitro antifungal broth dilution, Candida albicans (26 strains); format: cell-based; conditions: for percentages of strains with MICs ≤1 mcg/ml: Table Q; for percentages of strains with MFCs ≤1 mcg/ml: Table R; for MIC 90: Table S, MIC for 90% of the strains
Procedure: as §1

Candida krusei = experiment: in vitro antifungal broth dilution, Candida krusei (16 strains); format: cell-based; conditions: for percentages of strains with MICs ≤1 mcg/ml: Table Q; for percentages of strains with MFCs ≤1 mcg/ml: Table R
Procedure: as §1

[2] = tested on: Candida tropicalis & stellatoidea; experiment: in vitro antifungal broth dilution, Candida tropicalis & stellatoidea (5 strains); format: cell-based; conditions: for percentages of strains with MICs ≤1 mcg/ml: Table Q; for percentages of strains with MFCs ≤1 mcg/ml: Table R; for MIC 90: Table S, MIC for 90% of the strains
Procedure: as §1

Candida glabrata = experiment: in vitro antifungal broth dilution, Candida glabrata (9 strains); format: cell-based; conditions: for percentages of strains with MICs ≤1 mcg/ml: Table Q; for percentages of strains with MFCs ≤1 mcg/ml: Table R; for MIC 90: Table S, MIC for 90% of the strains
Procedure: as §1

Cryptococcus neoformans = experiment: in vitro antifungal broth dilution, Cryptococcus neoformans (3 strains); format: cell-based; conditions: for percentages of strains with MICs ≤1 mcg/ml: Table Q; for percentages of strains with MFCs ≤1 mcg/ml: Table R; for MIC 90: Table S, MIC for 90% of the strains
Procedure: as §1

Dermatophytes = experiment: in vitro antifungal broth dilution, dermatophytes (6 strains); format: cell-based, T. rubrum, T. mentagrophytes, and T. tonsurans; conditions: for percentages of strains with MICs ≤1 mcg/ml: Table Q; for percentages of strains with MFCs ≤1 mcg/ml: Table R
Procedure: as §1

SMILES	percentages of strains with MICs ≤1 mcg/ml (Aspergillus) [%]	percentages of strains with MICs ≤1 mcg/ml (Candida albicans) [%]	percentages of strains with MFCs ≤1 mcg/ml (Candida albicans) [%]	percentages of strains with MICs ≤1 mcg/ml (Candida krusei) [%]	percentages of strains with MICs ≤1 mcg/ml [2] [%]	percentages of strains with MFCs ≤1 mcg/ml [2] [%]	MIC 90 [2]	percentages of strains with MICs ≤1 mcg/ml (Candida glabrata) [%]	percentages of strains with MFCs ≤1 mcg/ml (Candida glabrata) [%]	percentages of strains with MICs ≤1 mcg/ml (Cryptococcus neoformans) [%]	percentages of strains with MFCs ≤1 mcg/ml (Cryptococcus neoformans) [%]	MIC 90 (Cryptococcus neoformans)	percentages of strains with MICs ≤1 mcg/ml (Dermatophytes) [%]	MIC 90 (Candida albicans)	MIC 90 (Candida glabrata) [MCG/ML]	other results
CCC(C(C)O)n1ncn(-c2ccc(N3CCN(c4ccc(OCC5COC(Cn6cncn6)(c6ccc(F)cc6F)C5)cc4)CC3)cc2)c1=O (centres unmarked) [drawing 24]	–	–	–	–	–	–	–	–	–	–	–	–	–	–	–	serum levels compared to azoles of similar structure [1]: consistently higher serum levels
CCC(C(C)O)n1ncn(-c2ccc(N3CCN(c4ccc(OCC5COC(Cn6cncn6)(c6ccc(F)cc6F)C5)cc4)CC3)cc2)c1=O (centres unmarked) [drawing 25]	100	100	100	100	100	100	.117 MCG/ML	22	22	100	100	.05 MCG/ML	100	–	–	percentages of strains with MFCs ≤1 mcg/ml (Aspergillus; listed as drawing 29): 50%; percentages of strains with MFCs ≤1 mcg/ml (Candida krusei; listed as drawing 29): 88%; percentages of strains with MFCs ≤1 mcg/ml (Dermatophytes; listed as drawing 29): 67%
CCC(C(C)O)n1ncn(-c2ccc(N3CCN(c4ccc(OCC5COC(Cn6cncn6)(c6ccc(F)cc6F)C5)cc4)CC3)cc2)c1=O (centres unmarked) [drawing 26]	–	100	100	–	100	100	.117 MCG/ML	22	22	100	100	.007 MCG/ML	–	.174 MCG/ML	17.1	percentages of strains with MFCs ≤1 mcg/ml (Aspergillus; listed as drawing 30): 62%; percentages of strains with MFCs ≤1 mcg/ml (Candida krusei; listed as drawing 30): 94%; percentages of strains with MFCs ≤1 mcg/ml (Dermatophytes; listed as drawing 30): 83%
CCC(C(C)O)n1ncn(-c2ccc(N3CCN(c4ccc(OCC5COC(Cn6cncn6)(c6ccc(F)cc6F)C5)cc4)CC3)cc2)c1=O (centres unmarked) [drawing 27]	–	100	100	–	100	100	.354 MCG/ML	33	22	100	100	.101 MCG/ML	–	.139 MCG/ML	28.8	percentages of strains with MFCs ≤1 mcg/ml (Aspergillus; listed as drawing 31): 89%; percentages of strains with MFCs ≤1 mcg/ml (Candida krusei; listed as drawing 31): 100%; percentages of strains with MFCs ≤1 mcg/ml (Dermatophytes; listed as drawing 31): 100%
OC(Cn1cncn1)(Cn1cncn1)c1ccc(F)cc1F [fluconazole, reference compound]	0	100	100	0	100	100	–	0	0	0	0	–	100	–	–	percentages of strains with MFCs ≤1 mcg/ml (Aspergillus): 0%; MFC (Aspergillus; SDB, 37 species of Aspergillus, compared to fluconazole, read-out: geometric mean MFC): ≥ 32 µg/mL; percentages of strains with MFCs ≤1 mcg/ml (Candida krusei): 0%; percentages of strains with MFCs ≤1 mcg/ml (Dermatophytes): 0%
